Test results: US20180000085A1, “USE OF PICOLINAMIDE COMPOUNDS WITH FUNGICIDAL ACTIVITY” (DOW AGROSCIENCES LLC, priority 2014, published 2018)

Legend:
Zymoseptoria tritici = assay: Leaf blotch of wheat (SEPTTR) disease control on wheat seedlings; type: in vivo; design: key to SEPTTR 1DP, HV activity at 100 ppm (% control rating) / SEPTTR 3DC, HV activity at 100 ppm (% control rating) / SEPTTR disease control, 1DP / SEPTTR disease control, 3DC / SEPTTR 1DP disease control rating, HV activity / SEPTTR 3DC disease control rating, HV activity / SEPTTR 3DC, LV activity at 125.1 g/H (% Control rating) / SEPTTR 1DP, LV activity at 125.1 g/H (% Control rating) / SEPTTR 1DP disease control rating, LV activity at 125.1 g/H / SEPTTR 3DC disease control rating, LV activity at 125.1 g/H / SEPTTR 3DC disease control rating, HV activity at 100 ppm / SEPTTR 1DP disease control rating, HV activity at 100 ppm / HV activity at 100 ppm SEPTTR 3DC (disease control rating) / HV activity at 100 ppm SEPTTR 1DP (disease control rating) / LV activity at 125.1 g/H SEPTTR 1DP (disease control rating) / LV activity at 125.1 g/H SEPTTR 3DC (disease control rating): A: > 80; B: ≤ 80; C: Not Tested; D: No Activity Observed in the Reported Assay; conditions: for SEPTTR 1DP disease control rating, HV activity / SEPTTR 3DC disease control rating, HV activity: HV application at 100 ppm
Puccinia triticina = assay: Wheat brown rust (PUCCRT) disease control on wheat seedlings; type: in vivo; design: key to PUCCRT 3DC, HV activity at 100 ppm (% control rating) / PUCCRT disease control, 3DC / PUCCRT 1DP disease control rating, HV activity / PUCCRT 3DC disease control rating, HV activity / PUCCRT 3DC, LV activity at 125.1 g/H (% Control rating) / PUCCRT 1DP, LV activity at 125.1 g/H (% Control rating) / PUCCRT 3DC disease control rating, LV activity at 125.1 g/H / PUCCRT 1DP disease control rating, LV activity at 125.1 g/H / PUCCRT 3DC disease control rating, HV activity at 100 ppm / PUCCRT 1DP disease control rating, HV activity at 100 ppm / HV activity at 100 ppm PUCCRT 3DC (disease control rating) / LV activity at 125.1 g/H PUCCRT 1DP (disease control rating) / LV activity at 125.1 g/H PUCCRT 3DC (disease control rating): A: > 80; B: ≤ 80; C: Not Tested; D: No Activity Observed in the Reported Assay; conditions: for PUCCRT 1DP disease control rating, HV activity / PUCCRT 3DC disease control rating, HV activity: HV application at 100 ppm
[1] = 1 Day Protectant, wheat leaf blotch
[2] = 3 Day Curative, wheat leaf blotch
[3] = 1 Day Protectant, wheat brown rust
[4] = 3 Day Curative, wheat brown rust
[5] = low volume application, 125.1 g/H, 1 Day Protectant
[6] = low volume application, 125.1 g/H, 3 Day Curative
[7] = low volume application, 125.1 g/H, 1 day protectant
[8] = low volume application, 125.1 g/H, 3 day curative
[9] = high volume application, 100 ppm, 1 day protectant
[10] = high volume application, 100 ppm, 3 day curative

| Compound | SEPTTR 1DP disease control rating, HV activity (Zymoseptoria tritici; [1]) | SEPTTR 3DC disease control rating, HV activity (Zymoseptoria tritici; [2]) | PUCCRT 1DP disease control rating, HV activity (Puccinia triticina; [3]) | PUCCRT 3DC disease control rating, HV activity (Puccinia triticina; [4]) | SEPTTR 1DP, LV activity at 125.1 g/H (% Control rating) (Zymoseptoria tritici; [5]) | SEPTTR 3DC, LV activity at 125.1 g/H (% Control rating) (Zymoseptoria tritici; [6]) | PUCCRT 1DP, LV activity at 125.1 g/H (% Control rating) (Puccinia triticina; [5]) | PUCCRT 3DC, LV activity at 125.1 g/H (% Control rating) (Puccinia triticina; [6]) | also measured |
| --- | --- | --- | --- | --- | --- | --- | --- | --- | --- |
| CCC(CC)C(Oc1cc(F)ccc1F)C(C)OC(=O)C(C)NC(=O)c1nccc(OC)c1O (stereo not drawn) [Cmpd 382] | D | B (≤ 80) | A (> 80) | A (> 80) |  |  |  |  |  |
| COc1ccnc(C(=O)N[C@@H](C)C(=O)O[C@@H](C)[C@H](Oc2cccc(Cl)c2)C(C)C)c1O [Cmpd 357] | A (> 80) | A (> 80) | A (> 80) | A (> 80) |  |  |  |  |  |
| CCCOCC(C)OC(=O)C(C)NC(=O)c1nccc(OC)c1OC(C)=O (stereo not drawn) [Cmpd 521] |  |  |  |  | D | D | D | D |  |
| CCC[C@@H](Oc1ccc(C)cc1Cl)[C@H](C)OC(=O)[C@H](C)NC(=O)c1nccc(OC)c1OC(C)=O [Cmpd 1068] |  |  |  |  |  |  |  |  | LV activity at 125.1 g/H SEPTTR 1DP (disease control rating) (Zymoseptoria tritici; low volume application, 125.1 g/H, 1 Day Protectant, wheat leaf blotch): B (≤ 80); LV activity at 125.1 g/H SEPTTR 3DC (disease control rating) (Zymoseptoria tritici; low volume application, 125.1 g/H, 3 Day Curative, wheat leaf blotch): B (≤ 80); LV activity at 125.1 g/H PUCCRT 1DP (disease control rating) (Puccinia triticina; low volume application, 125.1 g/H, 1 Day Protectant, wheat brown rust): A (> 80); LV activity at 125.1 g/H PUCCRT 3DC (disease control rating) (Puccinia triticina; low volume application, 125.1 g/H, 3 Day Curative, wheat brown rust): B (≤ 80) |
| CCC(CC)C(Oc1ccc(Cl)cc1)C(C)OC(=O)C(CC(C)C)NC(=O)c1nccc(OC)c1O (stereo not drawn) [Cmpd 427] | D | D | B (≤ 80) | D |  |  |  |  |  |
| CCC(CC)C(Oc1ccc(Cl)cc1Cl)C(C)OC(=O)C(C)NC(=O)c1nccc(OC)c1OC(C)=O (stereo not drawn) [Cmpd 675] |  |  |  |  |  |  |  |  | SEPTTR 1DP disease control rating, LV activity at 125.1 g/H (Zymoseptoria tritici; [7]): A (> 80); SEPTTR 3DC disease control rating, LV activity at 125.1 g/H (Zymoseptoria tritici; [8]): A (> 80); PUCCRT 1DP disease control rating, LV activity at 125.1 g/H (Puccinia triticina; [7]): A (> 80); PUCCRT 3DC disease control rating, LV activity at 125.1 g/H (Puccinia triticina; [8]): B (≤ 80) |
| CC[C@@H](Cc1ccccc1)[C@H](Oc1ccccc1)[C@H](C)OC(=O)[C@H](C)NC(=O)c1nccc(OC)c1O [Cmpd 313] | A (> 80) | B (≤ 80) | A (> 80) | A (> 80) |  |  |  |  |  |
| COc1ccnc(C(=O)NCC(=O)OC(C)C(Oc2ccccc2)C(C)C)c1OCOC(C)=O (stereo not drawn) [Cmpd 862] |  |  |  |  |  |  |  |  | SEPTTR 1DP disease control rating, LV activity at 125.1 g/H (Zymoseptoria tritici; [7]): D; SEPTTR 3DC disease control rating, LV activity at 125.1 g/H (Zymoseptoria tritici; [8]): D; PUCCRT 1DP disease control rating, LV activity at 125.1 g/H (Puccinia triticina; [7]): A (> 80); PUCCRT 3DC disease control rating, LV activity at 125.1 g/H (Puccinia triticina; [8]): A (> 80) |
| CCC(CC)[C@@H](Oc1ccc(-c2ccccc2)cc1)[C@H](C)OC(=O)[C@H](C)NC(=O)c1nccc(OC)c1OCOC(C)=O [Cmpd 596] |  |  |  |  | A (> 80) | B (≤ 80) | A (> 80) | B (≤ 80) |  |
| COc1ccnc(C(=O)NC(C)C(=O)OC(C)(C)[C@H](Oc2ccccc2)C(C)C)c1O (stereo partly drawn) [Cmpd 835, (R)-2,4-dimethyl-3-phenoxypentan-2-yl 2-(3-hydroxy-4-methoxypicolinamido)propanoate] |  |  |  |  |  |  |  |  | SEPTTR 1DP disease control rating, HV activity at 100 ppm (Zymoseptoria tritici; [9]): D; SEPTTR 3DC disease control rating, HV activity at 100 ppm (Zymoseptoria tritici; [10]): B (≤ 80); PUCCRT 1DP disease control rating, HV activity at 100 ppm (Puccinia triticina; [9]): A (> 80); PUCCRT 3DC disease control rating, HV activity at 100 ppm (Puccinia triticina; [10]): A (> 80) |
| CC[C@H](Cc1ccc(F)cc1)[C@@H](Oc1ccccc1)[C@H](C)OC(=O)[C@H](C)NC(=O)c1nccc(OC)c1OC(C)=O [Cmpd 469] |  |  |  |  | A (> 80) | A (> 80) | A (> 80) | A (> 80) |  |
| C=CC[C@@H](OCc1ccccc1)[C@H](C)OC(=O)[C@H](C)NC(=O)c1nccc(OC)c1OCOC(C)=O [Cmpd 516] |  |  |  |  | B (≤ 80) | D | A (> 80) | A (> 80) |  |
